In ChEMBL document CHEMBL1201861, “Genomics of Drug Sensitity in Cancer screening data, Wellcome Trust Sanger Institute”:

Assays:
Test in all cases: cells
CP66-MEL = type: functional, cell-based, Homo sapiens; conditions: Homo sapiens, CP66-MEL;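 also: growth inhibition of CP66-MEL cells determined in a cell viability assay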
Description: SANGER: Inhibition of human CP66-MEL cell growth in a cell viability assay.

D-502MG = type: functional, cell-based, Homo sapiens; conditions: Homo sapiens, D-502MG
Description: SANGER: Inhibition of human D-502MG cell growth in a cell viability assay.

DB = type: functional, cell-based; conditions: Homo sapiens
Description: SANGER: Inhibition of human DB cell growth in a cell viability assay.

DMS-273 = type: functional, cell-based, Homo sapiens; conditions: Homo sapiens, DMS-273
Description: SANGER: Inhibition of human DMS-273 cell growth in a cell viability assay.

ES6 = type: functional, cell-based, Homo sapiens; conditions: Homo sapiens, ES6;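 also: growth inhibition of human ES6 cells, read out with a cell viability assay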
Description: SANGER: Inhibition of human ES6 cell growth in a cell viability assay.

ESS-1 = type: functional, cell-based, Homo sapiens; conditions: Homo sapiens, ESS-1;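 also: growth inhibition of human ESS-1 cells, read out by a cell viability assay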
Description: SANGER: Inhibition of human ESS-1 cell growth in a cell viability assay.

H4 = type: functional, cell-based; conditions: Homo sapiens
Description: SANGER: Inhibition of human H4 cell growth in a cell viability assay.

HCC1419 = type: functional, cell-based, Homo sapiens; conditions: Homo sapiens, HCC1419;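 also: growth inhibition of human HCC1419 cells, read out as cell viability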
Description: SANGER: Inhibition of human HCC1419 cell growth in a cell viability assay.

HOP-92 = type: functional, cell-based, Homo sapiens; conditions: Homo sapiens, HOP-92;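 also: cell viability readout, with IC50 reflecting inhibition of HOP-92 cell growth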
Description: SANGER: Inhibition of human HOP-92 cell growth in a cell viability assay.

HPAF-II = type: functional, cell-based, Homo sapiens; conditions: Homo sapiens, HPAF-II;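 also: growth inhibition of HPAF-II cells, read out with a cell viability assay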
Description: SANGER: Inhibition of human HPAF-II cell growth in a cell viability assay.

HT1197 = type: functional, cell-based, Homo sapiens, HT-1197; conditions: Homo sapiens, HT1197
Description: SANGER: Inhibition of human HT-1197 cell growth in a cell viability assay.

HT-29 = type: functional, cell-based, Homo sapiens; conditions: Homo sapiens, HT-29;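 also: growth inhibition of human HT-29 cells, read out by a cell viability assay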
Description: SANGER: Inhibition of human HT-29 cell growth in a cell viability assay.

IST-MES1 = type: functional, cell-based, Homo sapiens; conditions: Homo sapiens, IST-MES1;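 also: growth inhibition of IST-MES1 cells, measured with a cell viability assay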
Description: SANGER: Inhibition of human IST-MES1 cell growth in a cell viability assay.

KNS-81-FD = type: functional, cell-based, Homo sapiens; conditions: Homo sapiens, KNS-81-FD;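 also: growth inhibition of KNS-81-FD cells, read out with a cell viability assay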
Description: SANGER: Inhibition of human KNS-81-FD cell growth in a cell viability assay.

KYSE-70 cell line = type: functional, cell-based, Homo sapiens; conditions: Homo sapiens, KYSE-70;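 also: cell viability assay read-out, with IC50 expressing suppression of KYSE-70 cell growth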
Description: SANGER: Inhibition of human KYSE-70 cell growth in a cell viability assay.

LB1047-RCC = type: functional, cell-based, Homo sapiens; conditions: Homo sapiens, LB1047-RCC;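 also: inhibition of cell growth, determined with a cell viability assay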
Description: SANGER: Inhibition of human LB1047-RCC cell growth in a cell viability assay.

LB771-HNC = type: functional, cell-based, Homo sapiens; conditions: Homo sapiens, LB771-HNC;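 also: growth inhibition of LB771-HNC human cells, read out with a cell viability assay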
Description: SANGER: Inhibition of human LB771-HNC cell growth in a cell viability assay.

MHH-NB-11 = type: functional, cell-based, Homo sapiens; conditions: Homo sapiens, MHH-NB-11;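 also: growth inhibition of human MHH-NB-11 cells, read out by a cell viability assay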
Description: SANGER: Inhibition of human MHH-NB-11 cell growth in a cell viability assay.

MIA PaCa-2 = type: functional, cell-based, Homo sapiens; conditions: Homo sapiens, MIA PaCa-2;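 also: growth inhibition of MIA PaCa-2 cells, read out with a cell viability assay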
Description: SANGER: Inhibition of human MIA-PaCa-2 cell growth in a cell viability assay.

MN-60 = type: functional, cell-based; conditions: Homo sapiens;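 also: growth inhibition of the MN-60 cell line, determined with a cell viability assay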
Description: SANGER: Inhibition of human MN-60 cell growth in a cell viability assay.

MOLT-16 = type: functional, cell-based; conditions: Homo sapiens;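 also: growth inhibition of human MOLT-16 cells, read out with a cell viability assay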
Description: SANGER: Inhibition of human MOLT-16 cell growth in a cell viability assay.

MPP-89 = type: functional, cell-based, Homo sapiens; conditions: Homo sapiens, MPP-89;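 also: growth inhibition of human MPP-89 cells, read out with a cell viability assay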
Description: SANGER: Inhibition of human MPP-89 cell growth in a cell viability assay.

MZ2-MEL = type: functional, cell-based, Homo sapiens; conditions: Homo sapiens, MZ2-MEL;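 also: growth inhibition of MZ2-MEL cells read out with a cell viability assay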
Description: SANGER: Inhibition of human MZ2-MEL cell growth in a cell viability assay.

MeWo = type: functional, cell-based, Homo sapiens; conditions: Homo sapiens, MeWo;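 also: growth inhibition of MeWo cells, determined by a cell viability readout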
Description: SANGER: Inhibition of human Mewo cell growth in a cell viability assay.

NB6 = type: functional, cell-based, Homo sapiens; conditions: Homo sapiens, NB6;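 also: growth inhibition of NB6 cells, read out by a cell viability assay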
Description: SANGER: Inhibition of human NB6 cell growth in a cell viability assay.

NCI-H1581 = type: functional, cell-based, Homo sapiens; conditions: Homo sapiens, NCI-H1581;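 also: cell growth inhibition read out by a viability assay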
Description: SANGER: Inhibition of human NCI-H1581 cell growth in a cell viability assay.

NCI-H1793 = type: functional, cell-based, Homo sapiens; conditions: Homo sapiens, NCI-H1793;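 also: cell growth inhibition, read out by a cell viability assay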
Description: SANGER: Inhibition of human NCI-H1793 cell growth in a cell viability assay.

NCI-H23 = type: functional, cell-based, Homo sapiens; conditions: Homo sapiens, NCI-H23;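 also: cell viability assay measuring growth inhibition of NCI-H23 cells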
Description: SANGER: Inhibition of human NCI-H23 cell growth in a cell viability assay.

NCI-H69 = type: functional, cell-based; conditions: Homo sapiens;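 also: growth inhibition of the cell line, read out with a cell viability assay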
Description: SANGER: Inhibition of human NCI-H69 cell growth in a cell viability assay.

NOMO-1 = type: functional, cell-based; conditions: Homo sapiens;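 also: growth inhibition of human NOMO-1 cells measured by a cell viability assay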
Description: SANGER: Inhibition of human NOMO-1 cell growth in a cell viability assay.

OCUB-M = type: functional, cell-based, Homo sapiens; conditions: Homo sapiens, OCUB-M;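 also: growth inhibition of the cancer cell line, read out through a cell viability assay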
Description: SANGER: Inhibition of human OCUB-M cell growth in a cell viability assay.

OVCAR-4 = type: functional, cell-based, Homo sapiens; conditions: Homo sapiens, OVCAR-4;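 also: growth inhibition of human OVCAR-4 cells, measured with a cell viability assay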
Description: SANGER: Inhibition of human OVCAR-4 cell growth in a cell viability assay.

OVCAR-5 = type: functional, cell-based, Homo sapiens; conditions: Homo sapiens, OVCAR-5;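 also: growth inhibition of human OVCAR-5 cells, read out with a cell viability assay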
Description: SANGER: Inhibition of human OVCAR-5 cell growth in a cell viability assay.

P12-Ichikawa = type: functional, cell-based; conditions: Homo sapiens
PA-1 = type: functional, cell-based, Homo sapiens; conditions: Homo sapiens, PA-1;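 also: IC50 for suppression of PA-1 cell proliferation, determined with a cell viability read-out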
Description: SANGER: Inhibition of human PA-1 cell growth in a cell viability assay.

SF-539 = type: functional, cell-based, Homo sapiens; conditions: Homo sapiens, SF-539;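 also: Read-out is a cell viability assay, with IC50 reflecting inhibition of cell growth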
Description: SANGER: Inhibition of human SF539 cell growth in a cell viability assay.

SK-MEL-2 = type: functional, cell-based, Homo sapiens; conditions: Homo sapiens, SK-MEL-2
Description: SANGER: Inhibition of human SK-MEL-2 cell growth in a cell viability assay.

SK-MEL-28 = type: functional, cell-based; conditions: Homo sapiens;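 also: growth inhibition of human SK-MEL-28 cells, read out with a cell viability assay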
Description: SANGER: Inhibition of human SK-MEL-28 cell growth in a cell viability assay.

SK-MES-1 = type: functional, cell-based, Homo sapiens; conditions: Homo sapiens, SK-MES-1;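 also: growth inhibition of human SK-MES-1 cells, read out with a cell viability assay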
Description: SANGER: Inhibition of human SK-MES-1 cell growth in a cell viability assay.

SW837 = type: functional, cell-based, Homo sapiens; conditions: Homo sapiens, SW837;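 also: growth inhibition of SW837 cells, determined with a cell viability assay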
Description: SANGER: Inhibition of human SW837 cell growth in a cell viability assay.

SW872 = type: functional, cell-based, Homo sapiens; conditions: Homo sapiens, SW872;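 also: growth inhibition of SW872 cells, read out by a viability assay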
Description: SANGER: Inhibition of human SW872 cell growth in a cell viability assay.

TE-1 = type: functional, cell-based, Homo sapiens; conditions: Homo sapiens, TE-1;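 also: growth inhibition of the human TE-1 cell line, read out with a cell viability assay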
Description: SANGER: Inhibition of human TE-1 cell growth in a cell viability assay.

5637 = type: functional, cell-based, Homo sapiens; conditions: Homo sapiens
Description: SANGER: Inhibition of human 5637 cell growth in a cell viability assay.

647-V = type: functional, cell-based, Homo sapiens; conditions: Homo sapiens, 647-V;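 also: growth inhibition of 647-V cells, read out with a cell viability assay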
Description: SANGER: Inhibition of human 647-V cell growth in a cell viability assay.

A3-KAW = type: functional, cell-based; conditions: Homo sapiens;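 also: growth inhibition of human A3-KAW cells, read out with a cell viability assay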
Description: SANGER: Inhibition of human A3-KAW cell growth in a cell viability assay.

BT-474 = type: functional, cell-based, Homo sapiens; conditions: Homo sapiens, BT-474
Description: SANGER: Inhibition of human BT-474 cell growth in a cell viability assay.

CAL-54 = type: functional, cell-based, Homo sapiens; conditions: Homo sapiens, CAL-54;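 also: growth inhibition of CAL-54 cells, read out by a viability measurement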
Description: SANGER: Inhibition of human CAL-54 cell growth in a cell viability assay.

UACC-893 = type: functional, cell-based, Homo sapiens; conditions: Homo sapiens, UACC-893
Description: SANGER: Inhibition of human UACC-893 cell growth in a cell viability assay.

VM-CUB-1 = type: functional, cell-based; conditions: Homo sapiens;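 also: cell viability assay measuring growth inhibition of the human VM-CUB-1 cell line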
Description: SANGER: Inhibition of human VM-CUB-1 cell growth in a cell viability assay.

Work on `CC(=O)O[C@@]12CO[C@@H]1C[C@H](O)[C@@]1(C)C(=O)[C@H](O)C3=C(C)[C@@H](OC(=O)[C@H](O)[C@@H](NC(=O)OC(C)(C)C)c4ccccc4)C[C@@](O)([C@@H](OC(=O)c4ccccc4)[C@H]21)C3(C)C` [DOCETAXEL] yielded an IC50 (CP66-MEL) of 3 nM, an IC50 (D-502MG) of 4.1 nM and an IC50 (DB) of 1.78 nM. It also gave an IC50 (DMS-273) of 0.674 nM, an IC50 (ES6) greater than 10 nM and an IC50 (ESS-1) of 0.179 nM. For the same molecule, the IC50 (H4) was 1.96 nM, the IC50 (HCC1419) was greater than 10 nM and the IC50 (HOP-92) was 7.3 nM. For the same molecule, the IC50 (HPAF-II) was 9.26 nM, the IC50 (HT1197) was greater than 10 nM and the IC50 (HT-29) was 2.8 nM. For the same molecule, the IC50 (IST-MES1) was 8.4 nM, the IC50 (KNS-81-FD) was 3.99 nM and the IC50 (KYSE-70 cell line) was 6.24 nM. For the same molecule, the IC50 (LB1047-RCC) was 8.8 nM, the IC50 (LB771-HNC) was greater than 10 nM and the IC50 (MHH-NB-11) was greater than 10 nM. For the same molecule, the IC50 (MIA PaCa-2) was 3.24 nM, the IC50 (MN-60) was greater than 10 nM and the IC50 (MOLT-16) was 8.27 nM. For the same molecule, the IC50 (MPP-89) was 5.67 nM, the IC50 (MZ2-MEL) was 6.58 nM and the IC50 (MeWo) was 5.05 nM. It also gave an IC50 (NB6) greater than 10 nM, an IC50 (NCI-H1581) of 2.17 nM and an IC50 (NCI-H1793) greater than 10 nM. For the same molecule, the IC50 (NCI-H23) was 3.64 nM, the IC50 (NCI-H69) was greater than 10 nM and the IC50 (NOMO-1) was 5.13 nM. The IC50 (OCUB-M) was 4.38 nM, the IC50 (OVCAR-4) was 5.86 nM and the IC50 (OVCAR-5) was 1.99 nM. For the same molecule, the IC50 (P12-Ichikawa) was 0.745 nM, the IC50 (PA-1) was 0.687 nM and the IC50 (SF-539) was 0.302 nM. The IC50 (SK-MEL-2) was 1.7 nM, the IC50 (SK-MEL-28) was 2.03 nM and the IC50 (SK-MES-1) was 2.33 nM. It also gave an IC50 (SW837) greater than 10 nM, an IC50 (SW872) greater than 10 nM and an IC50 (TE-1) of 2.16 nM. It also gave an IC50 5637 of 0.143 nM, an IC50 (647-V) of 1.84 nM and an IC50 (A3-KAW) greater than 10 nM. For the same molecule, the IC50 (BT-474) was greater than 10 nM, the IC50 (CAL-54) was greater than 10 nM and the IC50 (UACC-893) was greater than 10 nM. For the same molecule, the IC50 (VM-CUB-1) was 1.05 nM.

For `Nc1ccn([C@@H]2O[C@H](CO)[C@@H](O)[C@@H]2O)c(=O)n1` [CYTARABINE], the IC50 (CP66-MEL) was greater than 2000 nM, the IC50 (D-502MG) was greater than 2000 nM and the IC50 (DB) was 246 nM. For the same molecule, the IC50 (DMS-273) was 1460 nM, the IC50 (ES6) was 721 nM and the IC50 (ESS-1) was greater than 2000 nM. The IC50 (H4) was 274 nM, the IC50 (HCC1419) was greater than 2000 nM and the IC50 (HOP-92) was 354 nM. It also gave an IC50 (HPAF-II) greater than 2000 nM, an IC50 (HT1197) greater than 2000 nM and an IC50 (HT-29) greater than 2000 nM. It also gave an IC50 (IST-MES1) greater than 2000 nM, an IC50 (KNS-81-FD) greater than 2000 nM and an IC50 (KYSE-70 cell line) of 1860 nM. For the same molecule, the IC50 (LB1047-RCC) was 108 nM, the IC50 (LB771-HNC) was greater than 2000 nM and the IC50 (MHH-NB-11) was 728 nM. For the same molecule, the IC50 (MIA PaCa-2) was 1490 nM, the IC50 (MN-60) was 935 nM and the IC50 (MOLT-16) was 36.1 nM. It also gave an IC50 (MPP-89) of 1310 nM, an IC50 (MZ2-MEL) of 1430 nM and an IC50 (MeWo) of 1240 nM. It also gave an IC50 (NB6) greater than 2000 nM, an IC50 (NCI-H1581) of 1770 nM and an IC50 (NCI-H1793) greater than 2000 nM. It also gave an IC50 (NCI-H23) of 1200 nM, an IC50 (NCI-H69) greater than 2000 nM and an IC50 (NOMO-1) greater than 2000 nM. It also gave an IC50 (OCUB-M) greater than 2000 nM, an IC50 (OVCAR-4) greater than 2000 nM and an IC50 (OVCAR-5) of 220 nM. For the same molecule, the IC50 (P12-Ichikawa) was 5.54 nM, the IC50 (PA-1) was 187 nM and the IC50 (SF-539) was 717 nM. For the same molecule, the IC50 (SK-MEL-2) was greater than 2000 nM, the IC50 (SK-MEL-28) was 799 nM and the IC50 (SK-MES-1) was 807 nM. The IC50 (SW837) was greater than 2000 nM, the IC50 (SW872) was greater than 2000 nM and the IC50 (TE-1) was greater than 2000 nM. It also gave an IC50 5637 of 501 nM, an IC50 (647-V) of 1230 nM and an IC50 (A3-KAW) of 844 nM. It also gave an IC50 (BT-474) greater than 2000 nM, an IC50 (CAL-54) of 940 nM and an IC50 (UACC-893) greater than 2000 nM. It also gave an IC50 (VM-CUB-1) of 533 nM.

Work on `Cn1cc(C2=C(c3ccc(Cl)cc3Cl)C(=O)NC2=O)c2ccccc21` [SB-216763] yielded an IC50 (CP66-MEL) greater than 10000 nM, an IC50 (D-502MG) greater than 10000 nM and an IC50 (DB) greater than 10000 nM. It also gave an IC50 (DMS-273) greater than 10000 nM, an IC50 (ES6) greater than 10000 nM and an IC50 (ESS-1) of 9600 nM. The IC50 (H4) was greater than 10000 nM, the IC50 (HCC1419) was greater than 10000 nM and the IC50 (HOP-92) was greater than 10000 nM. The IC50 (HPAF-II) was greater than 10000 nM, the IC50 (HT1197) was greater than 10000 nM and the IC50 (HT-29) was greater than 10000 nM. For the same molecule, the IC50 (IST-MES1) was greater than 10000 nM, the IC50 (KNS-81-FD) was greater than 10000 nM and the IC50 (KYSE-70 cell line) was greater than 10000 nM. For the same molecule, the IC50 (LB1047-RCC) was greater than 10000 nM, the IC50 (LB771-HNC) was greater than 10000 nM and the IC50 (MHH-NB-11) was greater than 10000 nM. It also gave an IC50 (MIA PaCa-2) greater than 10000 nM, an IC50 (MN-60) greater than 10000 nM and an IC50 (MOLT-16) greater than 10000 nM. It also gave an IC50 (MPP-89) greater than 10000 nM, an IC50 (MZ2-MEL) greater than 10000 nM and an IC50 (MeWo) greater than 10000 nM. For the same molecule, the IC50 (NB6) was greater than 10000 nM, the IC50 (NCI-H1581) was greater than 10000 nM and the IC50 (NCI-H1793) was greater than 10000 nM. The IC50 (NCI-H23) was greater than 10000 nM, the IC50 (NOMO-1) was greater than 10000 nM and the IC50 (OCUB-M) was greater than 10000 nM. The IC50 (OVCAR-4) was greater than 10000 nM, the IC50 (OVCAR-5) was greater than 10000 nM and the IC50 (P12-Ichikawa) was greater than 10000 nM. For the same molecule, the IC50 (PA-1) was greater than 10000 nM, the IC50 (SF-539) was greater than 10000 nM and the IC50 (SK-MEL-2) was greater than 10000 nM. For the same molecule, the IC50 (SK-MEL-28) was greater than 10000 nM, the IC50 (SK-MES-1) was greater than 10000 nM and the IC50 (SW837) was greater than 10000 nM. It also gave an IC50 (SW872) greater than 10000 nM, an IC50 (TE-1) greater than 10000 nM and an IC50 5637 greater than 10000 nM. It also gave an IC50 (647-V) greater than 10000 nM, an IC50 (A3-KAW) greater than 10000 nM and an IC50 (BT-474) greater than 10000 nM. The IC50 (CAL-54) was greater than 10000 nM, the IC50 (UACC-893) was greater than 10000 nM and the IC50 (VM-CUB-1) was greater than 10000 nM.
